This is an account of results in patent EP0258134A1, “Therapeutical compositions containing benzhydryl thiomethane derivatives” (LABORATOIRE L. LAFON, priority 1986, dated 1988).

Structures are written as SMILES. A value given as a limit tells only on which side of the number the result lay.

Broadly, the solubility is how much of the substance goes into solution per volume.

Data set [1] is described as follows: Solubility in water. It counts as physicochemical. Particulars: water. An excerpt: Le composé est une poudre blanche, insoluble dans l'éther de pétrole, soluble dans l'éther, l'acé-tate d'éthyle et les alcools. Sa solubilité dans l'eau est inférieure à 0,1%.
Data set [2] has as its system souris. The data set can be described thus: Pretoxicity, i.p., 3 mice per dose. It counts as in vivo. The procedure: (§1) Le composé CRL 41 334, en suspension dans une solution de gomme arabique, a été administré par voie intrapéritonéale sous un volume de 20 ml/kg chez la souris (mâle, NMRI, C.E.R. Janvier) et de 5 ml/kg chez le rat (mâle, CD₁; SPRAGUE DAWLEY, Charles River).
I - PRETOXICITE ( 3 souris par dose)
(§2) Le CRL 41 055, en suspension dans une solution de gomme arabique, a été administré par voie intrapéritonéale sous un volume de 20 ml/kg chez la souris (mâle, NMRI, Evic Ceba).
Prétoxicite (3 souris par dose)
(§3) Le CRL 40 956, en suspension dans une solution de gomme arabique a été administré par voie intrapéritonéale sous un volume de 20 ml/kg chez la souris (mâle, NMRI, Evic Céba) et de 5 ml/kg chez le rat (mâle, CD₁, Sprague Dawley, Charles River).
Prétoxicité ( 3 souris par dose)

For data set [3], the system named is souris. The data set can be described thus: Global behaviour and reactivities, mouse, i.p. It counts as in vivo. The procedure:
as §1
Des lots de 3 animaux sont observés avant, puis 15 mn, 30 mn, 1h, 2h, 3h et 24 heures après l'administration du composé CRL 41 334.
as §2, §3
Des lots de 3 animaux sont observés avant, puis 15 mn, 30 mn, 1 h, 2 h, 3 h et 24 heures après l'administration de CRL 40 956.

Data set [4] deals with souris. The data set can be described thus: Interaction with reserpine, mouse. It counts as in vivo. The procedure: Quatre heures après l'injection intrapéritonéale de 2,5 mg/kg de réserpine, des lots de 12 souris reçoivent le composé CRL 41 334. • 1 - Action sur la température • 2 - Action sur le ptosis
Data set [5] deals with souris. The data set can be described thus: Four-plate test. The note with it: half an hour after administration. Format: in vivo. An excerpt: (§4) Le test est pratiqué sur des lots de 10 souris, une demi-heure après l'administration du composé CRL 41 334.
The subject of data set [6] is souris. Nature of the data set: Traction test. The note with it: half an hour after administration. Format: in vivo.
Text: as §4

Data set [7] relates to souris. Nature of the data set: Electroshock. It counts as in vivo. The note with it: 128 mg/kg.
Text: as §4

Data set [8] concerns souris. Nature of the data set: Intergroup aggressiveness. It counts as in vivo. The note with it: 32 et 128 mg/kg. The procedure:
Après avoir séjourné pendant 3 semaines dans chacune des moitiés d'une cage séparées par une cloison opaque, des groupes de 3 souris reçoivent le composé CRL 41 334. Une demi-heure plus tard, les deux groupes d'une même cage sont réunis par retrait de la cloison et on note le nombre de combats qui surviennent en 10 minutes. Le test est pratiqué pour moitié sur les souris habituelles (NMRI, C.E.R. Janvier) et pour moitié sur des souris NMRI (Iffa Credo).
Après avoir séjourné pendant 3 semaines dans chacune des moitiés d'une cage séparée par une cloison opaque, des groupes de 3 souris reçoivent le CRL 40 956. Une demi-heure plus tard, les deux groupes d'une même cage sont réunis par retrait de la cloison et on note le nombre de combats qui surviennent en 10 minutes.

For data set [9], the system named is souris. The data set can be described thus: Asphyxic anoxia (gallamine triethiodide). Format: in vivo. The note with it: 128 mg/kg, triiodoéthylate de gallamine 32 mg/kg i.p. The procedure: Des lots de 20 souris reçoivent le composé CRL 41 334 une demi-heure avant l'administration intrapéritonéale de 32 mg/kg de triiodoéthylate de gallamine.
Des lots de 10 souris reçoivent le CRL 40 956 une demi-heure avant l'administration intrapé-ritonéale de 32 mg/kg de triodoéthylate de Gallamine.

For data set [10], the system named is souris. The data set can be described thus: Behavioural despair (forced immersion). It counts as in vivo. Particulars: souris, 8, 32 et 128 mg/kg. An excerpt:
Une demi-heure après avoir reçu le composé CRL 41 334, des lots de 6 souris (mâles, CD₁, Charles River) sont placés dans un bécher rempli d'eau sur une hauteur de 6 cm. On note la durée totale d'immobilité entre la 2ème et la 6ème minutes suivant l'immersion.
Une demi-heure après avoir reçu le CRL 40 956, des lots de 10 souris (mâles CD₁ Charles River) sont plongées dans une enceinte réduite remplie d'eau sur une hauteur de 6 cm. On note la durée totale d'immobilité entre la 2ème et la 6ème minute suivant l'immersion.

The mark [11] stands for this setting: souris, 128 mg/kg, réserpine 2,5 mg/kg i.p.

In data set [1], `NC(=O)CSC(c1ccc(F)cc1)c1ccc(F)cc1` [CRL 41 334, 2-(4,4ʹ-difluorobenzhydrylthio)acétamide] gave a solubility below 1000 µg/mL. Further, the symptômes entry in [2] (128 mg/kg i.p.) is recorded as “sédation, puis excitation 2 heures après”; in data set [2] (256 mg/kg i.p.), “sédation suivie d'excitation 2 heures après l'injection”; in [2] (512 mg/kg i.p.), “démarche titubante”. Further, the convulsions in data set [2] (256 mg/kg i.p., à 15 minutes) is given as 3/3; in [2] (512 mg/kg i.p., pendant les 10 premières minutes), 3/3. Moreover, the mortalité in [2] (512 mg/kg i.p., 1/3 en 15 minutes et 2/3 en 24 heures) is reported as 3/3. Besides, the “comportement et réactivités” value is “sédation pendant 30 minutes” in [3] (souris, 128 mg/kg i.p.) and “pas de modifications nettes du comportement et des réactivités” in data set [3] (souris, 2, 8 et 32 mg/kg i.p.). For the same molecule, the Hypothermie in [3] (souris, 128 mg/kg i.p., à 30 minutes, durée 1 heure) is recorded as -4,1 °. In addition, the “hypothermie réserpinique” value in [4] (setting [11]) is given as “aggrave modérément l'hypothermie réserpinique”. Also, in data set [4] (setting [11]), the ptosis result was “n'est pas modi-fié”. Moreover, the “hypothermie et ptosis réserpiniques” value in data set [4] (souris, 8, 32 ou 128 mg/kg, au temps 24 heures) is “semble s'opposer à l'hypothermie et au ptosis réserpiniques”. The “nombre de passages punis” value in data set [5] was “ne modifie pas”. The incapacité motrice result in data set [6] is “ne provoque pas d'incapacité motrice majeure”. Moreover, the “effets convulsivants de l'électrochoc” value in data set [7] is given as “s'oppose faiblement aux effets convulsivants”. In [7], the “effets létaux de l'électrochoc” value is “sans modifier les effets létaux”. For the same molecule, the nombre de combats result in data set [8] is reported as “diminue le nombre de combats”. In addition, the “délai d'apparition de la mort” value in data set [9] is “augmente le délai d'apparition de la mort”. Further, the “délai d'apparition des convulsions” value in data set [9] is listed as “n'est pas modifié”. Also, in [10], the “durée de l'immobilité” value is “diminue la durée de l'immobilité”.
